Source: patent publication US20050221411A1, “Interaction of NMDA receptor with the protein tyrosine phosphatase step in psychotic disorders” (AGY Therapeutics, Inc., priority 2003, published 2005)
Entries after “also recorded” stand apart in the source; their conditions may differ.

Assays:
[1] = tested on: GluR1 subunit of AMPA receptors; experiment: Surface expression of AMPA receptor GluR1 subunit in neurons (biotinylation, Western blot); assay type: cell-based; details: versus RNAi-Scrambled
From the text: (§1) Interfering RNA molecules were introduced into neurons by AMAXA nucleofection. To specifically knockdown STEP the oligo used had the sequence 5′-[…]-3′, a control siRNA that is predicted not to knock down levels of any gene products (sequence 5′-[…]-3′ was also used (Dharmacon, Lafayette, Colo.). Interfering RNA molecules were introduced into neurons using the AMAXA nucleofection technique (AMAXA, Gaithersburg, Md.) using the manufacturers protocol. Neurons were allowed to grow in culture for 3-4 days prior to experimental procedures.
(§2) Neurons were washed with ice cold PBS. Sulfo-NHS-LC-Biotin (Pierce Biotechnology, Rockford, Ill.) was dissolved at 1.5 mg/ml in ice cold PBS and incubated with the cells for 1 hour at […]. Excess biotin was washed off the cells with ice cold PBS and cells lysed and harvested as above. […] of protein lysate was incubated with 100 μl of neutravadin agarose slurry (Pierce Biotechnology) overnight at […]. The complexes were washed thoroughly and proteins eluted from the beads by resuspension in SDS loading buffer and boiling for 10 mins. Proteins were loaded on 8% Tris-gicine gels and separated by SDS-PAGE. Western blotting was performed by standard means using the indicated antibodies.

[2] = tested on: NMDA receptors (NR1, NR2A, NR2B); experiment: Surface expression of NMDA receptor subunits in neurons (biotinylation, Western blot); assay type: cell-based
From the text: as §1, §2

[3] = tested on: EGF receptors; experiment: Surface expression of EGF receptors in neurons (biotinylation, Western blot); assay type: cell-based; details: versus RNAi-Scrambled
From the text: as §1, §2

[4] = tested on: STEP61; experiment: Knockdown of STEP protein by RNAi in cultured cortical neurons (Western blot); assay type: cell-based, rat
Protocol: Single stranded interfering RNA molecules (RNAi) were designed to be complementary to the sequence of STEP by standard means. The sequence used was 5′ AAACAUGCGAACAGUAUCAGU 3′. A standard scrambled RNA molecule of sequence 5′-CAG TCG CGT TTG CGA CTG G-3′ was used as a control. Dissociated cortical neurons were prepared from E18 rat embryos by standard protocols. The dissociated neurons were mixed with 90 ul of rat Nucleofector solution to give a final concentration of 4.8×10^6 cells/90 ul. The cells were mixed with 20 ug of RNAi and transferred to an electroporation cuvette. Using an AMAXA Nucleofector cells were electroporated using standard settings. Cells were transferred from the electroporation cuvette to poly-D-lysine coated 96 well plates for calcium flux assays or 6 well plates for Western blotting procedures and grown in standard neuronal media at 37° C. with 5% CO2 for 4 days.
Knockdown of endogenous STEP protein levels was visualized by Western blotting. Four days after electroporation cells were harvested and lysed with lysis buffer (150 mM NaCl, 50 mM Tris pH 7.6, 1% triton, in the presence of a protease inhibitor cocktail and 1 mM sodium orthovanadate) on ice. […] Levels of STEP protein were determined by Western blotting using anti-STEP antibodies (FIG. 6).

[5] = tested on: NMDA receptors; experiment: NMDA mediated calcium influx in cultured cortical neurons after RNAi (FLEXstation); assay type: cell-based, rat; details: 1 μM NMDA, four days after transfection, versus scrambled RNA molecule
[6] = tested on: GABAA receptor b subunit; experiment: Surface expression of GABAA receptor b subunit in neurons (biotinylation, Western blot); assay type: cell-based; details: versus RNAi-Scrambled
From the text: as §1, §2

[7] = tested on: NMDA receptor / ERK phosphorylation; experiment: NMDAR mediated ERK phosphorylation in cultured cortical neurons (Western blot); assay type: cell-based
Protocol: […] SDS-PAGE was performed and western blotting used to detect ERK phosphorylation levels.
ERK phosphorylation in cultured cortical neurons (10-13 division) can be elicited by activation of NMDARs.

5′ AAACAUGCGAACAGUAUCAGU 3′ (guide AAACAUGCGAACAGUAUCAGU; siRNA; RNA, backbone and methylation of C not given here; single-stranded interfering RNA) [RNAi-STEP]
surface levels of the GluR1 subunit of AMPA receptors [1]: unaffected
total levels of each subunit ([2]; RNAi-STEP or RNAi-Scrambled): the same
levels of surface NR1 ([2]; versus RNAi-Scrambled): increased
levels of surface NR2A ([2]; versus RNAi-Scrambled): increased
levels of surface NR2B ([2]; versus RNAi-Scrambled): increased
surface levels of EGF receptors [3]: unaffected
levels of STEP61 protein ([4]; cultured cortical neurons, four days after transfection, versus scrambled RNA molecule): lower levels of STEP61 protein
STEP levels in the total protein lysate ([4]; neurons, AMAXA nucleofection, relative to RNAi-Scrambled): knocked down
Ca influx elicited by application of NMDA [5]: increase in NMDA receptor mediated Ca influx
Ca influx elicited by application of NMDA ([5]; listed as inhibitory RNA to STEP): larger NMDA response
surface levels of the GABAA receptor b subunit [6]: unaffected

N[C@H](CCCP(=O)(O)O)C(=O)O [D-APV, D-2-amino-5-phosphonopentanoic acid]
NMDA stimulated ERK phosphorylation ([7]; D-APV 200 μM, stimulation with 100 μM NMDA for 5 minutes): blocked; also recorded: inhibits

CN[C@H](CC(=O)O)C(=O)O [NMDA, N-methyl-D-aspartate]
ERK phosphorylation levels ([7]; 100 μM NMDA for 5 minutes, cultured cortical neurons (10-13 division)): significant ERK phosphorylation; also recorded: significantly increased
